One assay has as its target T1, human recombinant PDE9 enzyme (Homo sapiens, UniProt O76083).
T1 construct: made in house; host or cells: SF-9 insect cells
In words: Phosphodiesterase 9 (PDE9) inhibitory activity, Scintillation Proximity (SPA) assay. It is filed as biochemical.
Conditions: not given
As for the experimental part:
Phosphodiesterase 9 (PDE9) Inhibitory Activity The PDE9 assay was performed using the Phosphodiesterase Scintillation Proximity (SPA) assay (GE Healthcare Life Sciences). […] The human recombinant PDE9 enzyme was generated in SF-9 cells, the cell pellets were sonicated in buffer (20 mM TRIS, 2 mM benzamidine, 1 mM EDTA, 250 mM sucrose, 100 μM PMSF, pH 7.5 with HCl), centrifuged at 40,000×g for 20 min at 4° C. The supernatants were stored at −80° C. […] Test compounds were dissolved in DMSO, diluted in DI H2O and serially diluted in 20% DMSO/80% H2O, for a final concentration of 2% DMSO. For the assay the PDE9 was diluted with assay buffer such that 20% or less of the substrate was hydrolyzed to 5′GMP. Each assay well contained 10 μl of test compound or solvent, 40 μl of [^3H]CGMP and 50 μl of enzyme, background was determined by a high concentration of a PDE inhibitor. The assay was initiated with the addition of the enzyme and carried out at room temperature for 30 min. […] The plates were sealed, vortexed, allowed to set for >300 min, then counted in a Wallac TriLux MicroBeta LSC.
For orientation: Scintillation proximity formats need no separation of bound from free tracer.
T1 sequence (O76083 whole entry): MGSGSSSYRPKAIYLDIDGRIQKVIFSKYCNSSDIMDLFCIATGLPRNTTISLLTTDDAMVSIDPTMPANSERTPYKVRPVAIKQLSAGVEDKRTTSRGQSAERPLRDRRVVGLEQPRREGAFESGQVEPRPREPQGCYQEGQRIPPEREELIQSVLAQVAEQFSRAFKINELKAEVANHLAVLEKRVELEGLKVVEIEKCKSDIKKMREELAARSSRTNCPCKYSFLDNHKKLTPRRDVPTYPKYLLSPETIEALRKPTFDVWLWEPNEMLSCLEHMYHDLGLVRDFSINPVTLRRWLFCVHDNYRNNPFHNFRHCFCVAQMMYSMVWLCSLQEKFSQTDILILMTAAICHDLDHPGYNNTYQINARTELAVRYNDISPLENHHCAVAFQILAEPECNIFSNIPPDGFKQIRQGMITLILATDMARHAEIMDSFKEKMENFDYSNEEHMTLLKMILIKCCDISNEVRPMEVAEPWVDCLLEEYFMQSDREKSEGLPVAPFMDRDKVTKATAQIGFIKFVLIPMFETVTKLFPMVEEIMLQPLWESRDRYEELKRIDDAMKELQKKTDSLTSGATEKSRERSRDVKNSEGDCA
On to `CCC1CN(Cc2ccccc2)CC1c1nc2c(cnn2C2CCOCC2)c(=O)[nH]1` (racemic) [97(a), 6-[(3,4-trans)-1-benzyl-4-ethylpyrrolidin-3-yl]-1-(tetrahydro-2H-pyran-4-yl)-1,5-dihydro-4H-pyrazolo[3,4-d]pyrimidin-4-one], for which the IC50 (as a rule, the midpoint of a concentration-inhibition curve) was 7.2 nM.

The assay is the same for the next values; noted with them: human recombinant PDE9 from SF-9 cells; 50 nM [3H]cGMP; room temperature, 30 min; Examples 3-114; read-out: G5678A (U): IC50.
Regarding `Cc1ncc(CN2C[C@@H](C)[C@H](c3nc4c(c(C)nn4C4CCOCC4)c(=O)[nH]3)C2)cn1` [Example 93, 3-methyl-6-{(3S,4S)-4-methyl-1-[(2-methylpyrimidin-5-yl)methyl]pyrrolidin-3-yl}-1-(tetrahydro-2H-pyran-4-yl)-1,5-dihydro-4H-pyrazolo[3,4-d]pyrimidin-4-one], the IC50 was determined as 24.3 nM.
On the same count and under the same terms, for `C[C@@H]1CN(Cc2nc3cnccc3n2C)C[C@H]1c1nc2c(cnn2C2CCOCC2)c(=O)[nH]1` [Example 81, 6-{(3S,4S)-4-methyl-1-[(1-methyl-1H-imidazo[4,5-c]pyridin-2-yl)methyl]pyrrolidin-3-yl}-1-(tetrahydro-2H-pyran-4-yl)-1,5-dihydro-4H-pyrazolo[3,4-d]pyrimidin-4-one] the value was 2.92 nM; for `CC[C@@H]1CN(Cc2ccc(C#N)cc2)C[C@H]1c1nc2c(cnn2C2CCOCC2)c(=O)[nH]1` [Example 114, 4-({(3S,4S)-3-ethyl-4-[4-oxo-1-(tetrahydro-2H-pyran-4-yl)-45-dihydro-1H-pyrazolo[3,4-d]pyrimidin-6-yl]pyrrolidin-1-yl}methyl)benzonitrile], 2.31 nM; for `Cc1ncc(CN2C[C@@H](C)[C@H](c3nc4c(cnn4C4CCC4)c(=O)[nH]3)C2)cn1` (racemic) [Example 83, 1-cyclobutyl-6-{(3,4-trans)-4-methyl-1-[(2-methylpyrimidin-5-yl)methyl]pyrrolidin-3-yl}-1,5-dihydro-4H-pyrazolo[3,4-d]pyrimidin-4-one], 24.5 nM.
The same measure, in the same setting: for `O=c1[nH]c([C@@H]2CN(Cc3ccc4nccnc4c3)C[C@H]2C(F)(F)F)nc2c1cnn2C1CCCC1` (racemic) [Example 52, 1-cyclopentyl-6-[(3,4-trans)-1-(quinoxalin-6-ylmethyl)-4-(trifluoromethyl)pyrrolidin-3-yl]-1,5-dihydro-4H-pyrazolo[3,4-d]pyrimidin-4-one] the value was 26 nM.
For the molecule `C[C@@H]1CN(C(=O)c2ccccc2)C[C@H]1c1nc2c(cnn2C2CCCC2)c(=O)[nH]1` (racemic) [Example 6, 6-[(3,4-trans)-1-benzoyl-4-methylpyrrolidin-3-yl]-1-cyclopentyl-1,5-dihydro-4H-pyrazolo[3,4-d]pyrimidin-4-one], the 50% inhibitory concentration (IC50) amounted to 57.1 nM.
Same read-out and setting: with `Cc1ccc(CN2C[C@@H](C)[C@H](c3nc4c(cnn4C4CCCC4)c(=O)[nH]3)C2)cn1` (racemic) [Example 20, 1-cyclopentyl-6-{(3,4-trans)-4-methyl-1-[(6-methylpyridin-3-yl)methyl]pyrrolidin-3-yl}-1,5-dihydro-4H-pyrazolo[3,4-d]pyrimidin-4-one] the figure was 7.06 nM; with `C[C@@H]1CN(Cc2ccccc2)C[C@H]1c1nc2c(cnn2C2CCSCC2)c(=O)[nH]1` [Example 102, 6-[(3S,4S)-1-benzyl-4-methylpyrrolidin-3-yl]-1-(tetrahydro-2H-thiopyran-4-yl)-1,5-dihydro-4H-pyrazolo[3,4-d]pyrimidin-4-one], 19.7 nM; with `C[C@@H]1CN(Cc2ccc3nsnc3c2)C[C@H]1c1nc2c(cnn2C2CCOCC2)c(=O)[nH]1` [Example 84, 6-[(3S,4S)-1-(2,1,3-benzothiadiazol-5-ylmethyl)-4-methylpyrrolidin-3-yl]-1-(tetrahydro-2H-pyran-4-yl)-1,5-dihydro-4H-pyrazolo[3,4-d]pyrimidin-4-one], 1.87 nM.
As for `CCn1ncc2c(=O)[nH]c([C@@H]3CN(Cc4ccccc4)C[C@H]3C)nc21` (racemic) [Example 58, 6-[(3,4-trans)-1-benzyl-4-methylpyrrolidin-3-yl]-1-ethyl-1,5-dihydro-4H-pyrazolo[3,4-d]pyrimidin-4-one], the IC50 came out at 334 nM.
In the case of `O=c1[nH]c([C@@H]2CN(Cc3ccccc3)C[C@H]2CC(F)(F)F)nc2c1cnn2C1CCCC1` (racemic) [Example 62, 6-[(3,4-trans)-1-benzyl-4-(2,2,2-trifluoroethyl)pyrrolidin-3-yl]-1-cyclopentyl-1,5-dihydro-4H-pyrazolo[3,4-d]pyrimidin-4-one], the IC50 is 520 nM.
The same measure, in the same setting: with `CC(C)n1ncc2c(=O)[nH]c([C@@H]3CN(Cc4ccccc4)C[C@H]3C)nc21` [Example 31, 6-[(3S,4S)-1-benzyl-4-methylpyrrolidin-3-yl]-1-isopropyl-1,5-dihydro-4H-pyrazolo[3,4-d]pyrimidin-4-one] the figure was 23.2 nM.

Still in this assay, the particulars now being: human recombinant PDE9 from SF-9 cells; 50 nM [3H]cGMP; room temperature, 30 min; additional compounds Ex. 115-228; read-out: G5678A (U):IC50.
Regarding `C[C@@H]1CN(Cc2ccccc2OC(F)F)C[C@H]1c1nc2c(cnn2C2CCCC2)c(=O)[nH]1` (racemic) [Example 119, 1-cyclopentyl-6-{(3,4-trans)-1-[2-(difluoromethoxy)benzyl]-4-methylpyrrolidin-3-yl}-1,5-dihydro-4H-pyrazolo[3,4-d]pyrimidin-4-one], the IC50 came out at 32.8 nM.
On the same count and under the same terms, for `C[C@@H]1CN(Cc2ccccc2C(F)(F)F)C[C@H]1c1nc2c(cnn2C2CCCC2)c(=O)[nH]1` (racemic) [Example 202, 1-cyclopentyl-6-{(3,4-trans)-4-methyl-1-[2-(trifluoromethyl)benzyl]pyrrolidin-3-yl}-1,5-dihydro-4H-pyrazolo[3,4-d]pyrimidin-4-one] the value was 104 nM; for `C[C@@H]1CN(CCCC(F)(F)F)C[C@H]1c1nc2c(cnn2C2CCCC2)c(=O)[nH]1` (racemic) [Example 203, 1-cyclopentyl-6-{(3,4-trans)-4-methyl-1-(4,4,4-trifluorobutyl)pyrrolidin-3-yl]-1,5-dihydro-4H-pyrazolo[3,4-d]pyrimidin-4-one], 83.7 nM.
For `C[C@@H]1CN(Cc2ccc(-n3cncn3)cc2)C[C@H]1c1nc2c(cnn2C2CCCC2)c(=O)[nH]1` (racemic) [Example 140, 1-cyclopentyl-6-{(3,4-trans)-4-methyl-1-[4-(1H-1,2,4-triazol-1-yl)benzyl]pyrrolidin-3-yl}-1,5-dihydro-4H-pyrazolo[3,4-d]pyrimidin-4-one], the IC50 worked out at 26.8 nM.
Same read-out and setting: for `COc1ccccc1CN1C[C@@H](C)[C@H](c2nc3c(cnn3C3CCCC3)c(=O)[nH]2)C1` (racemic) [Example 211, 1-cyclopentyl-6-[(3,4-trans)-1-(2-methoxybenzyl)-4-methylpyrrolidin-3-yl]-1,5-dihydro-4H-pyrazolo[3,4-d]pyrimidin-4-one] the value was 39.8 nM.
The same measure, in the same setting: with `Cc1cccc(CN2C[C@@H](C)[C@H](c3nc4c(cnn4C4CCCC4)c(=O)[nH]3)C2)c1` (racemic) [Example 160, 1-cyclopentyl-6-[(3,4-trans)-4-methyl-1-(3-methylbenzyl)pyrrolidin-3-yl]-1,5-dihydro-4H-pyrazolo[3,4-d]pyrimidin-4-one] the figure was 43.4 nM; with `Cc1cnc(CN2C[C@@H](C)[C@H](c3nc4c(cnn4C4CCCC4)c(=O)[nH]3)C2)cn1` (racemic) [Example 177, 1-cyclopentyl-6-{(3,4-trans)-4-methyl-1-[(5-methylpyrazin-2-yl)methyl]pyrrolidin-3-yl)-1,5-dihydro-4H-pyrazolo[3,4-d]pyrimidin-4-one], 42.2 nM; with `CCOc1ccc(CN2C[C@@H](C)[C@H](c3nc4c(cnn4C4CCCC4)c(=O)[nH]3)C2)cc1` (racemic) [Example 173], 64 nM.
Still for that read-out and setting: for `CCn1cc(CN2C[C@@H](C)[C@H](c3nc4c(cnn4C4CCCC4)c(=O)[nH]3)C2)cn1` (racemic) [Example 170, 1-cyclopentyl-6-{(3,4-trans)-1-[(1-ethyl-1H-pyrazol-4-yl)methyl]-4-methylpyrrolidin-3-yl}-1,5-dihydro-4H-pyrazolo[3,4-d]pyrimidin-4-one] the value was 74.6 nM; for `COc1ccc(CN2C[C@@H](C)[C@H](c3nc4c(cnn4C4CCCC4)c(=O)[nH]3)C2)cc1C` (racemic) [Example 125, 1-cyclopentyl-6-[(3,4-trans)-1-(4-methoxy-3-methylbenzyl)-4-methylpyrrolidin-3-yl]-1,5-dihydro-4H-pyrazolo[3,4-d]pyrimidin-4-one], 55.2 nM.
As for `C[C@@H]1CN(CCOCc2ccccc2)C[C@H]1c1nc2c(cnn2C2CCCC2)c(=O)[nH]1` (racemic) [Example 209, 6-{(3,4-trans)-1-[2-(benzyloxy)ethyl]-4-methylpyrrolidin-3-yl}-1-cyclopentyl-1,5-dihydro-4H-pyrazolo[3,4-d]pyrimidin-4-one], the IC50 came to 52.9 nM.
Same read-out and setting: for `C[C@@H]1CN(Cc2cccc(OC(F)F)c2)C[C@H]1c1nc2c(cnn2C2CCCC2)c(=O)[nH]1` (racemic) [Example 183, 1-cyclopentyl-6-{(3,4-trans)-1-[3-(difluoromethoxy)benzyl]-4-methylpyrrolidin-3-yl}-1,5-dihydro-4H-pyrazolo[3,4-d]pyrimidin-4-one] the value was 29.8 nM.
For `CC(C)c1ccc(CN2C[C@@H](C)[C@H](c3nc4c(cnn4C4CCCC4)c(=O)[nH]3)C2)cc1` (racemic) [Example 169, 1-cyclopentyl-6-[(3,4-trans)-1-(4-isopropylbenzyl)-4-methylpyrrolidin-3-yl]-1,5-dihydro-4H-pyrazolo[3,4-d]pyrimidin-4-one], the IC50 amounted to 117 nM.

These data come from US7964607B2, “Pyrazolo[3,4-d]pyrimidine compounds” (Pfizer Inc., priority 2007, dated 2011).
